Data: US6703214B2, “Lipid uptake assays” (Devgen NV, priority 2000, dated 2004)

Assays:
[1] = tested on: C. elegans; assay: Fatty acid uptake assay after overnight compound incubation (activation of FATPs), C4-BODIPY-C9 probe; assay type: in vivo
Experimental: A fixed amount of probe is then distributed in the microtiter wells. The nematodes are incubated for one hour at room temperature in presence or absence of molecules to be tested. The microtiter plate is rinsed 3 to 4 times, using a standard plate washer (Wellwash, Labsystems, Zellik, Belgium), taking care to perform the aspiration sufficiently distant from the bottom of the well to avoid any loss of nematodes remaining at the bottom. The fluorescence intensity is then measured using a fluorescence microtiter plate reader, using a standard set of fluorescein filters.
Retinoic acid and troglutazones are activators of RXR and PPARγ respectively. C. elegans worms were incubated with these compounds in a range from 100 μM to 0.1 μM for a time period between 1 to 6 hours. Fatty acid uptake was measured using the microtiter plate assay described above.
More particularly, constitutive pharynx pumping worms in late L4 stage or young adults were incubated overnight on agar plates with different concentrations of the retinoic acid or troglutazone (e.g. Rosiglitazon). The compounds were added as solutions in 1 ml M9. After overnight incubation, these worms were further incubated for 1 h with 50 μM C4-BODIPY-C9 in 1 ml M9 on the same agar plates. After incubation the worms were washed three times and dispensed with the worm dispenser, up to 50 worms per well in the multi-well plates. Fluorescence intensity was measured using a microtiter plate reader, as described above.

[2] = tested on: wild type (N2) C. elegans; assay: Lipid uptake assay with quenched probe (QBFA) in liquid culture after overnight compound incubation on agar plates; assay type: in vivo; settings: L4 stage worms, about 16 h with various concentrations; 10 μM QBFA, fluorescence read after 2 hours; FIG. 21
Experimental: Standard 9 cm agar plates were seeded with E. coli (any strain suitable for use in culture of C. elegans may be used). 1 ml volume of rosiglitazone at various concentrations was added to the plates and the plates seeded with L4 stage C. elegans. After an overnight incubation (approximately 16 h), the C. elegans were isolated and washed three times with approximately 15 ml M9 buffer. The worms were then re-suspended into microtiter plates, at 100 worms per well. Quenched probe (QBFA) was added at a final concentration of 10 μM in a total volume of 100 μl. Fluorescence measurements were taken after 2 hours in an automated plate reader. Typical results are illustrated in FIG. 21.

Row | Molecule | effect on fatty acid uptake (in words) ([1]; increased expression of FATP by applying the compound) | effect on lipid uptake (in words) [2] | increase in fatty acid uptake ([1]; constitutive pharynx pumping worms, late L4/young adults, overnight incubation with compound on agar plates, 1 h with 50 μM C4-BODIPY-C9, FIG. 8) [fold] | increase in fatty acid uptake, also observed at low concentration ([1]; only 3 μM of Rosiglitazon applied, otherwise as E1) [fold]
1 | troglutazone | clearly enhanced fatty acid uptake | – | – | –
2 | CN(CCOc1ccc(CC2SC(=O)NC2=O)cc1)c1ccccn1 (stereo not shown) [Rosiglitazon] | – | have an effect on lipid uptake | 5 | 5
